We go through two molecules from patent US20260365633A1, “Novel PEM Structures for SBX” (Roche Sequencing Solutions, Inc., priority 2023, published 2026).

The target of this assay is T1, C4760 DNA polymerase (a variant of DPO4) (Saccharolobus solfataricus, UniProt Q97W02, A155G/A42V/D156R/D292Y/D294N/E291S/E324K/E325K/E327K/E63R/E79L/G187P/G299W/I153V/I189F/I248T/I295S/K152A/K317Q/K321Q/K56Y/K78D/L293W/M76W/N188Y/P184Q/Q82W/Q83G/R300S/S297Y/S86E/T290K/T301W/V289W/V296Q).
T1 construct: Eco or Kod SSB in reaction as additive
T1 sequence (Q97W02 1-340 A155G/A42V/D156R/D292Y/D294N/E291S/E324K/E325K/E327K/E63R/E79L/G187P/G299W/I153V/I189F/I248T/I295S/K152A/K317Q/K321Q/K56Y/K78D/L293W/M76W/N188Y/P184Q/Q82W/Q83G/R300S/S297Y/S86E/T290K/T301W/V289W/V296Q): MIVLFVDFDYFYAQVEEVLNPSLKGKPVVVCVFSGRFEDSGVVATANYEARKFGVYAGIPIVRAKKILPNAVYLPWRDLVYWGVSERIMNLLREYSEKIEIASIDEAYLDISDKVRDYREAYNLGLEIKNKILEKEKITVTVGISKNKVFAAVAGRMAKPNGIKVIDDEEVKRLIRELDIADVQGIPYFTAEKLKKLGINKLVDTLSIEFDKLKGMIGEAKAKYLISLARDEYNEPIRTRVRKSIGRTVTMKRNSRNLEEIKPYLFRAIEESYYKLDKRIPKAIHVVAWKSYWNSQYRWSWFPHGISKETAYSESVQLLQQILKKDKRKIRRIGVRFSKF
Briefly: Primer extension on 411mer amplicon template with C4760 polymerase, gel. It counts as biochemical, Sulfolobus solfataricus. The method, then:
PEM activity of compound 15 was tested in primer extension assays using a 411mer amplicon template. Primer extension reactions included the following reagents: 50 Mm TrisCl, 200 Mm NH40ac, 20% PEG8K, 5% NMS, 3 nmol PP-60.20, 2 Mm MnCl2, 2 μg Kod single-strand binding protein (SSB), 1 M urea, 250 pmol each XNTP, 1 pmol template, 1 pmol [COMPOUND LEFT OUT] primer, 1.2 μg purified recombinant C4760 DNA polymerase (a variant of DPO4, see SEQ ID NO: 2), and 2 (lane 2) or 3 (lane 3) Mm PEM. 10 μL primer extension reactions were run for 20 minutes at 37 °C and reaction products were analyzed by gel electrophoresis. A representative gel showing primer extension products is presented in FIG. 12 (the position of a 277mer is indicated by the arrow). […] Remarkably, the polymerase is completely dependent upon the addition of PEM to the reaction in order to be capable of synthesizing these lengthy Xpandomer products. Even longer extension products may be obtained by optimizing various reaction parameters, e.g., extension time and/or concentrations of various additives.
PEM activity of compound 19, was tested in primer extension assays using the 411mer amplicon template. […] 10 μL primer extension reactions were run for 30 minutes at 37 °C and reaction products were analyzed by gel electrophoresis. […]

As for `CCOC(=O)c1cc(-c2cn(-c3ccc(O)c(C(=O)O)c3)nn2)nc(-c2cn(-c3ccc(O)c(C(=O)O)c3)nn2)c1` [Compound 15, 5,5′-((4-(ethoxycarbonyl)pyridine-2,6-diyl)bis(1H-1,2,3-triazole-4,1-diyl))bis(2-hydroxybenzoic acid)], where the note is “2 or 3 Mm PEM, 20 minutes at 37 °C, FIG. 12”, the “XNTP polymerization relative to compound 14” value was “comparable to that of compound 14”.
`NC(=O)c1cc(-c2cn(-c3ccc(C(=O)O)c(O)c3)nn2)nc(-c2cn(-c3ccc(C(=O)O)c(O)c3)nn2)c1` [Compound 19, 4,4′-((4-carbamoylpyridine-2,6-diyl)bis(1H-1,2,3-triazole-4,1-diyl))bis(2-hydroxybenzoic acid)]: the “XNTP polymerization relative to compound 14” value (0.5, 1, or 1.5 Mm PEM, 30 minutes at 37 °C, FIG. 14) is “less efficient than that of compound 14”.
